Where no end group is shown, it is not given here.
Experiments:
[1] = test system: Methicillin resistant S. aureus (MRSA); format: cell-based, Staphylococcus aureus; settings: broth microdilution (CLSI), 64 to 0.125 μg/mL, 24 h at 35 °C, human clinical isolate
Method: Tissue expression of devil cathelicidin prepropeptides was determined by real-time PCR on a range of secretory, immune, reproductive, gastrointestinal and respiratory tissues, as well as BLAST searches of the milk transcriptome. Opportunistic tissue samples for real-time PCR were collected from Taronga Zoo (Sydney) from devils which were subject to euthanasia due to old age and advanced disease. The mature peptides of all six devil cathelicidins were synthesised by ChinaPeptides Co. Ltd. and their antimicrobial activity against bacterial and fungal pathogens determined by broth microdilution susceptibility assay according to clinical laboratory standards institute guidelines. Antimicrobial activity was expressed as minimum inhibitory concentration (MIC). Cytotoxicity was assessed in the human cell line A549 and haemolytic activity determined against human blood. Statistical significance of peptide effect on cell survival in comparison to the untreated control was calculated using a one sample t-test. Pouch microbiome analysis was performed on swabs from the pouch of lactating and non-lactating devils to detect changes in microbe populations. Pouch swab collection was carried out in accordance with the Save the Tasmanian Devil Program and was approved by the Animal Ethics Committee of the University of Sydney (permit number 681). […]
base (YNB) for fungi, from a concentration of 64μg/mL to 0.125μg/mL in a final volume of 100 μL .
Two antibiotics, ampicillin and tetracycline, were included as a positive control for bacteria, and the antifungal drug fluconazole for fungi. A well containing cells and media only was used as a “no drug” control to ensure that cultures grew normally. […] Colonies were resuspended in saline and the OD530 measured with a McFarland reader. […] Assays Antimicrobial activity was expressed as minimum inhibitory concentration (MIC), which was defined as the lowest concentration of cathelicidin preventing visible growth, relative to the negative control. […]
DMEM and positive control of dimethylsulfoxide (DMSO) (1%) were also included. Following incubation for a further 24 hours, cell viability was determined using alamar blue (Invitrogen) which was added to each well. The plates were incubated for 24 hours, then the absorption measured at 570nm and 620nm using the Victor 3 multilabel plate reader (PerkinElmer). […] To x i city of cathelicidins was calculated according to Invitrogen recommendations and expressed as percentage cell survival compared to the untreated growth control. […]
Haemolytic activity was assessed using 10mL of human blood collected into potassium -ED T A […]

[2] = test system: human red blood cells; format: cell-based; settings: red cells of human, 24 h
Method: Tissue expression of devil cathelicidin prepropeptides was determined by real-time PCR on a range of secretory, immune, reproductive, gastrointestinal and respiratory tissues, as well as BLAST searches of the milk transcriptome. Opportunistic tissue samples for real-time PCR were collected from Taronga Zoo (Sydney) from devils which were subject to euthanasia due to old age and advanced disease. […] Ltd. and their antimicrobial activity against bacterial and fungal pathogens determined by broth microdilution susceptibility assay according to clinical laboratory standards institute guidelines. Antimicrobial activity was expressed as minimum inhibitory concentration (MIC). Cytotoxicity was assessed in the human cell line A549 and haemolytic activity determined against human blood. Statistical significance of peptide effect on cell survival in comparison to the untreated control was calculated using a one sample t-test. Pouch microbiome analysis was performed on swabs from the pouch of lactating and non-lactating devils to detect changes in microbe populations. Pouch swab collection was carried out in accordance with the Save the Tasmanian Devil Program and was approved by the Animal Ethics Committee of the University of Sydney (permit number 681). page 3: […] Two antibiotics, ampicillin and tetracycline, were included as a positive control for bacteria, and the […] A well containing cells and media only was used as a “no drug” control to ensure that cultures grew normally. Bacteria were subcultured on Mueller Hinton agar (MHA) or Sheep blood agar (BA) for 24 hours at 35 °C for Staphylococcus spp., Pseudomonas spp., Enterococcus spp. and E.coli, with 5% CO2 for Streptococcus spp., K.pneumoniae, P.multocida, […] Similarly, fungi were subcultured on Sabouraud agar (SAB) at 35 °C for 24 hours prior to the test. Colonies were resuspended in saline and the OD530 measured with a McFarland reader. If necessary the suspension was diluted to 0.45-0.55 McFarland units with saline. […] Assays Antimicrobial activity was expressed as minimum inhibitory concentration (MIC), which was defined as the lowest concentration of cathelicidin preventing visible growth, relative to the negative control. Colonies which grew on agar plates were also counted. Cytotoxicity Cytotoxicity was assessed in the human A549 cell line maintained in Dulbecco’s Modification of Eagle’s Medium (DMEM) supplemented with 10% foetal bovine serum (FBS), 2mM L -glutamine, 50units/mL penicillin and 50μg/mL streptomycin. […] Following incubation for a further 24 hours, cell viability was determined using alamar blue (Invitrogen) which was added to each well. […]

Sequence | MIC [1] | haemolysis compared with the positive control [2]
KRIGLIRLIGKILRGLRRLG [Saha-CATH5] | 32 µg/mL | 
KRMGIFHLFWAGLRKLGNLIKNKIQQGIENFLG [Saha-CATH3] |  | below 7%

— publication PMC5057115, “Cathelicidins in the Tasmanian devil (Sarcophilus harrisii)” (Scientific Reports, 2016)
